Results taken from patent publication US9522888B2, “Substituted bicyclic compounds” (BRISTOL-MYERS SQUIBB COMPANY, priority 2014, dated 2016).
pEC50, pIC50: −log10 of the molar value.

Legend:
human S1P1 = human S1P1 (Homo sapiens (Human), UniProt P21453); assay: S1P1 binding assay (33P-S1P radioligand competition, CHO cell membranes); details: phosphate examples; read-out: S1P1 Binding
In short: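 Radioligand is 33P-S1P, competing for membranes from human S1P1-expressing CHO cells. Membranes resuspended in 50 mM HEPES pH 7.5, 100 mM NaCl, 1 mM MgCl2, 2 mM EDTA.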

[1] = target: S1P1 (membranes prepared from S1P1/CHO cells) (Homo sapiens (Human), UniProt P21453); assay: Receptor [35S] GTPγS binding assay (S1P1 GTPγS); format: biochemical; details: phosphate examples; read-out: S1P1 GTPγS
S1P1 (membranes prepared from S1P1/CHO cells), sequence (P21453 whole entry): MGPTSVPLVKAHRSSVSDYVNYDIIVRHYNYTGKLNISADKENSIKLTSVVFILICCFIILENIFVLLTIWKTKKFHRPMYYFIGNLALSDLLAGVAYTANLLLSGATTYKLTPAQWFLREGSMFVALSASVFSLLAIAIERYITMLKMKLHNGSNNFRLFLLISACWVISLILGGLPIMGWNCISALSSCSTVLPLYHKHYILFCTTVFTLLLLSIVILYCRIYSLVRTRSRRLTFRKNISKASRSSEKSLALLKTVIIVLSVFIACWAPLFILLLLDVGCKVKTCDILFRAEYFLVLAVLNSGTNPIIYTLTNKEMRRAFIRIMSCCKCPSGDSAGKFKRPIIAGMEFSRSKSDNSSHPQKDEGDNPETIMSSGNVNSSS
In short: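 Membranes from S1P1-expressing CHO cells (3 μg protein/well) incubated with compound (11-point, 3-fold dilution) and 0.2 nM final [35S]GTPγS, 45 min at room temperature. Assay buffer: 20 mM HEPES pH 7.5, 10 mM MgCl2, 150 mM NaCl, 10 μM GDP, 0.1% fatty-acid-free BSA, 10 μg/ml saponin. Filter-bound radioactivity counted by scintillation; EC50 derived.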

[2] = target: S1P3 (membranes prepared from EDG3-Gal5-bla HEK293T cells) (Homo sapiens (Human), UniProt Q99500); assay: Receptor [35S] GTPγS binding assay (S1P3 GTPγS); format: biochemical; details: phosphate examples; read-out: S1P3 GTPγS
S1P3 (membranes prepared from EDG3-Gal5-bla HEK293T cells), sequence (Q99500 whole entry): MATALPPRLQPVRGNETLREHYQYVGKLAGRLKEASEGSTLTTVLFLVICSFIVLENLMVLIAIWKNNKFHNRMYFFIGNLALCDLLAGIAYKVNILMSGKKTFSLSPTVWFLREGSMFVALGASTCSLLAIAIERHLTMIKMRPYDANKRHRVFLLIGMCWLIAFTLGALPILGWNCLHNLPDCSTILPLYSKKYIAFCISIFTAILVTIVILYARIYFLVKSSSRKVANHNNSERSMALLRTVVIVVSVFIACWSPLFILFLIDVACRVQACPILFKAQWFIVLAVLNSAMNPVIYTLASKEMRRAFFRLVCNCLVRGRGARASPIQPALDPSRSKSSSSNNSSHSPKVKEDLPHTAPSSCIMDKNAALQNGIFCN
In short: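 Membranes (3 μg protein/well) from S1P1/CHO cells or EDG3-Gal5-bla HEK293T cells (S1P3) were incubated 45 min at room temperature with 0.2 nM final [35S]GTPγS in HEPES pH 7.5 buffer with 10 μM GDP, MgCl2 and saponin. Bound label counted after filtration; EC50 from 11-point, 3-fold dilutions.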

hS1P1/CHO cells = hS1P1/CHO cells (Homo sapiens (Human), UniProt P21453); assay: hS1P1 ERK phosphorylation (S1P1 pERK); format: cell-based; details: phosphate examples
hS1P1/CHO cells, sequence (P21453 whole entry): as the sequence (P21453 whole entry) above
In short: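 CHO cells expressing human S1P1, serum-starved 2 h, exposed to compound in HBSS/20 mM HEPES for 7 min at 37° C. Lysates assayed for phospho-ERK by SureFire kit; response given as % activation relative to 10 μM S1P.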

human S1P1, sequence (P21453 whole entry): as above

| SMILES | pIC50 (human S1P1) | pEC50 [1] | pEC50 [2] | pEC50 (hS1P1/CHO cells) |
| --- | --- | --- | --- | --- |
| Cn1nc(OC[C@@H]2CCc3cc([C@H]4CC[C@](N)(COP(=O)(O)O)C4)ccc3C2)cc1C(F)(F)F [compound 496] | > 8.00 | > 8.00 | < 6.20 | > 8.00 |
| N[C@]1(COP(=O)(O)O)CC[C@H](c2ccc3c(c2)CC[C@@H](COc2cccc(OC(F)(F)F)c2)C3)C1 [compound 497] | 7.00 to 8.00 | > 8.00 | < 6.20 | > 8.00 |
| COc1cc(OC[C@@H]2CCc3cc([C@H]4CC[C@](N)(COP(=O)(O)O)C4)ccc3C2)ccc1C(C)(C)C [compound 498] | 7.00 to 8.00 | 6.00 to 7.00 | < 6.20 | 7.00 to 8.00 |
| N[C@]1(COP(=O)(O)O)CC[C@H](c2ccc3c(c2)CC[C@@H](COCc2ccc(C(F)(F)F)s2)C3)C1 [compound 499] | > 8.00 | 7.00 to 8.00 | < 6.20 | 7.00 to 8.00 |
| CCCSC[C@@H]1CCc2cc([C@H]3CC[C@](N)(COP(=O)(O)O)C3)ccc2C1 [compound 503] | > 8.00 | > 8.00 | < 6.20 | > 8.00 |
| CC(C)CSC[C@@H]1CCc2cc([C@H]3CC[C@](N)(COP(=O)(O)O)C3)ccc2C1 [compound 504] | > 8.00 | 7.00 to 8.00 | < 6.20 | > 8.00 |
| CCCCSC[C@H]1CCc2cc([C@@H]3CC[C@](N)(COP(=O)(O)O)C3)ccc2C1 [compound 505] | 7.00 to 8.00 | 7.00 to 8.00 | < 6.20 | 7.00 to 8.00 |
| CCCCSC[C@@H]1CCc2cc([C@@H]3CC[C@](N)(COP(=O)(O)O)C3)ccc2C1 [compound 506] | > 8.00 | > 8.00 | < 6.20 | > 8.00 |
| N[C@]1(COP(=O)(O)O)CC[C@@H](c2ccc3c(c2)CC[C@H](CSc2ccccc2)C3)C1 [compound 507] | 6.00 to 7.00 | 6.00 to 7.00 | < 6.20 | 7.00 to 8.00 |
| N[C@]1(COP(=O)(O)O)CC[C@@H](c2ccc3c(c2)CC[C@@H](CSc2ccccc2)C3)C1 [compound 508] | 7.00 to 8.00 | 6.00 to 7.00 | < 6.20 | 7.00 to 8.00 |
| CC(C)CSC[C@H]1CCc2cc([C@H]3CC[C@](N)(COP(=O)(O)O)C3)ccc2C1 [compound 509] | 7.00 to 8.00 | 7.00 to 8.00 | < 6.20 | > 8.00 |
| CC(C)CCSC[C@@H]1CCc2cc([C@H]3CC[C@](N)(COP(=O)(O)O)C3)ccc2C1 [compound 510] | > 8.00 | 7.00 to 8.00 | < 6.20 | > 8.00 |
| CC(C)CCSC[C@H]1CCc2cc([C@H]3CC[C@](N)(COP(=O)(O)O)C3)ccc2C1 [compound 511] | > 8.00 | 7.00 to 8.00 | < 6.20 | > 8.00 |
| CCCCCSC[C@H]1CCc2cc([C@H]3CC[C@](N)(COP(=O)(O)O)C3)ccc2C1 [compound 512] | > 8.00 | > 8.00 | < 6.20 | 7.00 to 8.00 |
| CCCCCSC[C@@H]1CCc2cc([C@H]3CC[C@](N)(COP(=O)(O)O)C3)ccc2C1 [compound 513] | > 8.00 | 7.00 to 8.00 | < 6.20 | > 8.00 |
| CC(C)(C)CSC[C@H]1CCc2cc([C@H]3CC[C@](N)(COP(=O)(O)O)C3)ccc2C1 [compound 514] | > 8.00 | 7.00 to 8.00 | < 6.20 | 7.00 to 8.00 |
| CC(C)(C)CSC[C@@H]1CCc2cc([C@H]3CC[C@](N)(COP(=O)(O)O)C3)ccc2C1 [compound 515] | 7.00 to 8.00 | 7.00 to 8.00 | < 6.20 | > 8.00 |
| N[C@]1(COP(=O)(O)O)CC[C@H](c2ccc3c(c2)CC[C@@H](CSc2cccnc2)C3)C1 [compound 516] | 7.00 to 8.00 | 7.00 to 8.00 | < 6.20 | > 8.00 |
| N[C@]1(COP(=O)(O)O)CC[C@H](c2ccc3c(c2)CC[C@@H](CSc2ccncc2)C3)C1 [compound 517] | 7.00 to 8.00 | 7.00 to 8.00 | < 6.20 | > 8.00 |
| CC(C)(C)CCSC[C@H]1CCc2cc([C@H]3CC[C@](N)(COP(=O)(O)O)C3)ccc2C1 [compound 518] | > 8.00 | > 8.00 | < 6.20 | > 8.00 |
| CC(C)(C)CCSC[C@@H]1CCc2cc([C@H]3CC[C@](N)(COP(=O)(O)O)C3)ccc2C1 [compound 519] | > 8.00 | > 8.00 | < 6.20 | > 8.00 |

| SMILES | pIC50 (human S1P1) | pEC50 [1] | pEC50 [2] | pEC50 (hS1P1/CHO cells) |
| --- | --- | --- | --- | --- |
| Cc1ccccc1SC[C@@H]1CCc2cc([C@H]3CC[C@](N)(COP(=O)(O)O)C3)ccc2C1 [compound 520] | 7.00 to 8.00 | 7.00 to 8.00 | < 6.20 | 7.00 to 8.00 |
| N[C@]1(COP(=O)(O)O)CC[C@H](c2ccc3c(c2)CC[C@H](CSCCc2ccccc2)C3)C1 [compound 521] | > 8.00 | > 8.00 | < 7.30 | 7.00 to 8.00 |
| N[C@]1(COP(=O)(O)O)CC[C@H](c2ccc3c(c2)CC[C@@H](CSCCc2ccccc2)C3)C1 [compound 522] | > 8.00 | 7.00 to 8.00 | < 6.20 | 7.00 to 8.00 |
| Cc1cccc(C)c1SC[C@@H]1CCc2cc([C@H]3CC[C@](N)(COP(=O)(O)O)C3)ccc2C1 [compound 523] | 7.00 to 8.00 | 6.00 to 7.00 | < 6.20 | 7.00 to 8.00 |
| N[C@]1(COP(=O)(O)O)CC[C@H](c2ccc3c(c2)CC[C@@H](CSCCc2ccccn2)C3)C1 [compound 524] | 7.00 to 8.00 | > 8.00 | < 6.20 | > 8.00 |
| N[C@]1(COP(=O)(O)O)CC[C@H](c2ccc3c(c2)CC[C@@H](CSCCc2ccncc2)C3)C1 [compound 525] | > 8.00 | 7.00 to 8.00 | < 6.20 | > 8.00 |
| N[C@]1(COP(=O)(O)O)CC[C@H](c2ccc3c(c2)CC[C@H](CSCCc2cnccn2)C3)C1 [compound 526] | 7.00 to 8.00 | 7.00 to 8.00 | < 6.20 | > 8.00 |
| COc1ccccc1SC[C@@H]1CCc2cc([C@H]3CC[C@](N)(COP(=O)(O)O)C3)ccc2C1 [compound 527] | > 8.00 | > 8.00 | < 6.20 | > 8.00 |
| COc1cccc(SC[C@@H]2CCc3cc([C@H]4CC[C@](N)(COP(=O)(O)O)C4)ccc3C2)c1 [compound 528] | 7.00 to 8.00 | 6.00 to 7.00 | < 6.20 | 7.00 to 8.00 |
| COc1ccc(SC[C@@H]2CCc3cc([C@H]4CC[C@](N)(COP(=O)(O)O)C4)ccc3C2)cc1 [compound 529] | > 8.00 | 7.00 to 8.00 | < 6.20 | > 8.00 |
| CC(C)c1ccccc1SC[C@@H]1CCc2cc([C@H]3CC[C@](N)(COP(=O)(O)O)C3)ccc2C1 [compound 530] | 7.00 to 8.00 | > 8.00 | < 6.20 | 7.00 to 8.00 |
| COc1ccc(SC[C@@H]2CCc3cc([C@H]4CC[C@](N)(COP(=O)(O)O)C4)ccc3C2)cc1OC [compound 531] | 7.00 to 8.00 | 7.00 to 8.00 | < 6.20 | 7.00 to 8.00 |
| CCCSC[C@H]1CCc2cc([C@H]3CC[C@](N)(COP(=O)(O)O)C3)ccc2C1 [compound 532] | > 8.00 | > 8.00 | < 6.20 | > 8.00 |
| CCSCC[C@@H]1CCc2cc([C@H]3CC[C@](N)(COP(=O)(O)O)C3)ccc2C1 [compound 533] | > 8.00 | > 8.00 | < 6.20 | > 8.00 |
| CCCSCC[C@H]1CCc2cc([C@H]3CC[C@](N)(COP(=O)(O)O)C3)ccc2C1 [compound 534] | > 8.00 | > 8.00 | < 6.20 | 7.00 to 8.00 |
| CCCSCC[C@@H]1CCc2cc([C@H]3CC[C@](N)(COP(=O)(O)O)C3)ccc2C1 [compound 535] | > 8.00 | > 8.00 | < 6.20 | > 8.00 |
| CC(C)SCC[C@H]1CCc2cc([C@H]3CC[C@](N)(COP(=O)(O)O)C3)ccc2C1 [compound 536] | > 8.00 | 7.00 to 8.00 | < 6.20 | > 8.00 |
| CC(C)SCC[C@@H]1CCc2cc([C@H]3CC[C@](N)(COP(=O)(O)O)C3)ccc2C1 [compound 537] | > 8.00 | > 8.00 | < 6.20 | > 8.00 |
| CC(C)CSCC[C@@H]1CCc2cc([C@H]3CC[C@](N)(COP(=O)(O)O)C3)ccc2C1 [compound 538] | > 8.00 | > 8.00 | < 6.20 | > 8.00 |
| CC(C)CSCC[C@H]1CCc2cc([C@H]3CC[C@](N)(COP(=O)(O)O)C3)ccc2C1 [compound 539] | > 8.00 | > 8.00 | < 6.20 | > 8.00 |
